Tested on: CD8^+ T cells
Assay: Flow cytometry immune profiling of tumor and spleen, E0771 tumor model
Assay type: in vivo, C57BL/6 mice
Details: αPD-1 with or without treatment
Method: FIGS. 7A-C are graphs showing the results of immune cell profiling by flow cytometry in the murine MCA-205 (FIGS. 7A-B) or E0771 (FIG. 7C) tumor model treated with anti-PD-1 and/or CC. The tumors and the spleens were harvested 9 days or 19 days after the first injection of anti-PD-1 mAb into mice bearing MCA-205 or E0771 tumors, respectively. Excised tumors were cut into small pieces and digested in RPMI medium containing Liberase 25 μg/mL (Roche) and DNase1 at 150 Ul/mL (Roche) for 30 minutes at 37° C. and then crushed and filtered twice using 100 and 70 μm cell strainers (Becton & Dickinson). Spleens were crushed in RPMI medium and subsequently filtered through a 100 μm cell strainer. Two million tumor cells or splenocytes were pre-incubated with purified anti-mouse CD16/CD32 (clone 93; eBioscience) for 30 minutes at 4° C., before membrane staining (CD45, CD3, CD4, CD8, PD1, PDL1, ICOS, CXCR3, CCR9, CD45RB, CD62L, CD44). For intracellular staining, the Foxp3 staining kit (eBioscience) was used. Dead cells were excluded using the Live/Dead Fixable aqua blue dead cell stain kit (Life Technologies). […] FIG. 7C is a graph showing the activation of intratumoral CD8^+ T cells (as assessed by MFI of ICOS^+CD8^+ T cells by flow cytometry) in TILs in the E0771 tumor model post-treatment with CC +/-αPD-1. […]

Question: Which “frequency of memory CD8^+ T cells (CD44^HighCD62L^−CD8^+)” value (splenocytes) does the source give for O=C1OC[C@H]2OC(=O)c3cc(O)c(O)c(O)c3-c3c(O)c(O)c(O)c4c3C(=O)O[C@H]([C@H]3OC(=O)c5c-4c(O)c(O)c(O)c5[C@@H]3O)[C@@H]2OC(=O)c2cc(O)c(O)c(O)c2-c2c1cc(O)c(O)c2O [castalagin, Castalagin] here?
Answer: increase in frequency of memory CD8^+ T cells

Question: What about the “frequency of memory CD8^+ T cells (CD44^HighCD62L^−CD8^+)” value (tumor microenvironment) of the same compound?
Answer: increase in frequency of memory CD8^+ T cells
